# Experimental data reported in patent publication US9890142B2, “PDE4 inhibitor” (Meiji Seika Pharma Co., Ltd., priority 2013, dated 2018).
# Tested on: PDE4
# Assay: Evaluation of PDE4 inhibition (scintillation proximity assay)
# Assay type: biochemical
# Settings: inhibition rate relative to control, test compound at 1 μM
# Experimental: Test Example 1 Evaluation of PDE4 Inhibition
# The PDE4 inhibitory activity was measured by using scintillation proximity assay (SPA) as follows: one in which a sample compound dissolved in dimethyl sulfoxide was diluted 10-fold with a buffer solution for reaction containing 50 mM Tris-HCl, pH 7.5, 8.3 mM MgCl2, 1.7 mM EDTA and 0.3 mg/mL bovine serum albumin (BSA) was added at 10 μL/well to a 96-well assay plate. Further, PDE4 diluted 750-fold with a buffer solution for reaction was added at 50 μL/well, then [2,8-^3H]-Adenosine-3′,5′-cyclic phosphate triethylammonium salt diluted 1000-fold with a buffer solution for reaction was added at 40 μL/well, and the plate was left standing at room temperature for 120 minutes. Thereafter, a suspension of RNA binding YSi-SPA Beads containing 200 mM ZnSO4 was added at 50 μL/well, and the plate was left standing at room temperature for 15 minutes to adsorb the enzyme reaction product onto the Beads. Thereafter, the radioactivity was measured with a liquid scintillation counter for 96-well plates. When one supplemented with only a buffer solution for reaction without adding the enzyme preparation was used as a blank and one supplemented with the enzyme preparation but supplemented with only dimethyl sulfoxide instead of the sample solution was used as a control, the inhibition rate of the test compound relative to the control was calculated according to the following calculation expression: Inhibition rate (%)={1−(Numeric value from the addition of each sample−Blank value)/(Control value−Blank value)}×100
row,Structure (SMILES),PDE4 inhibitory activity (1 μM (%)) [%]
1,"C[C@H]1CNCCN1c1nc2c(OC(F)(F)F)c(F)cc(-c3ccccn3)c2o1 [Example 134, (S)-5-Fluoro-2-(2-methylpiperazin-1-yl)-7-(pyridin-2-yl)-4-(trifluoromethoxy)benzoxazole]",88
2,"C[C@H]1CNCCN1c1nc2cc(Cl)cc(-n3cncn3)c2o1 [Example 46, (S)-5-Chloro-2-(2-methylpiperazin-1-yl)-7-(1H-1,2,4-triazol-1-yl)benzoxazole]",29
3,"C[C@H]1CNCCN1c1nc2c(F)c(F)cc(-c3nccs3)c2o1 [Example 90, (S)-4,5-Difluoro-2-(2-methylpiperazin-1-yl)-7-(thiazol-2-yl)benzoxazole]",96
4,"Cc1cc(Cl)cc2nc(N3[C@H](C)CNC[C@@H]3C)oc12 [Example 4, meso-5-Chloro-2-(2,6-cis-dimethylpiperazin-1-yl)-7-methylbenzoxazole]",18
5,"C[C@H]1CNCCN1c1nc2cc(Cl)cc(N3CCCCC3)c2o1 [Example 22, (S)-5-Chloro-2-(2-methylpiperazin-1-yl)-7-(piperidin-1-yl)benzoxazole]",40
6,"C[C@H]1CNCCN1c1nc2cc(Cl)cc(C3CC3)c2o1 [Example 27, (S)-5-Chloro-7-cyclopropyl-2-(2-methylpiperazin-1-yl)benzoxazole]",85
7,"C[C@H]1CNCCN1c1nc2cc(Cl)cc(N3CCCC3)c2o1 [Example 20, (S)-5-Chloro-2-(2-methylpiperazin-1-yl)-7-(pyrrolidin-1-yl)benzoxazole]",71
8,"C[C@H]1CNCCN1c1nc2cc(Cl)cc(-c3ccccn3)c2o1 [Example 41, (S)-5-Chloro-2-(2-methylpiperazin-1-yl)-7-(pyridin-2-yl)benzoxazole]",93
9,"C[C@H]1CNCCN1c1nc2c(C#N)c(Cl)cc(-c3nccs3)c2o1 [Example 143, (S)-5-Chloro-4-cyano-2-(2-methylpiperazin-1-yl)-7-(thiazol-2-yl)benzoxazole]",94
10,"C[C@H]1CNCCN1c1nc2cc(C#N)cc(-c3nccs3)c2o1 [Example 112, (S)-5-Cyano-2-(2-methylpiperazin-1-yl)-7-(thiazol-2-yl)benzoxazole]",94
11,"CCc1cc(Cl)cc2nc(N3CCNC[C@@H]3CC)oc12 [Example 14, (S)-5-Chloro-7-ethyl-2-(2-ethylpiperazin-1-yl)benzoxazole]",37
12,"C[C@H]1CNCCN1c1nc2cc(Cl)c(F)c(-c3nccs3)c2o1 [Example 93, (S)-5-Chloro-6-fluoro-2-(2-methylpiperazin-1-yl)-7-(thiazol-2-yl)benzoxazole]",95
13,"C[C@H]1CNCCN1c1nc2cc(F)cc(-c3ccccn3)c2o1 [Example 102, (S)-5-Fluoro-2-(2-methylpiperazin-1-yl)-7-(pyridin-2-yl)benzoxazole]",85
14,"C[C@H]1CNCCN1c1nc2cc(Cl)cc(-c3nccs3)c2o1 [Example 35, (S)-5-Chloro-2-(2-methylpiperazin-1-yl)-7-(thiazol-2-yl)benzoxazole]",96
15,"CCN(CC)C(=O)c1cc(Cl)cc2nc(N3CCNC[C@@H]3C)oc12 [Example 97, (S)-5-Chloro-7-diethylaminocarbonyl-2-(2-methylpiperazin-1-yl)benzoxazole]",10
16,"C[C@H]1CNCCN1c1nc2cc(Cl)cc(C3CCCC3)c2o1 [Example 31, (S)-5-Chloro-7-cyclopentyl-2-(2-methylpiperazin-1-yl)benzoxazole]",51
17,"COc1c(Cl)cc2nc(N3CCNC[C@@H]3C)oc2c1C [Example 161, (S)-5-Chloro-6-methoxy-7-methyl-2-(2-methylpiperazin-1-yl)benzoxazole]",19
18,"Cc1cnn(-c2cc(Cl)cc3nc(N4CCNC[C@@H]4C)oc23)c1 [Example 40, (S)-5-Chloro-7-(4-methyl-1H-pyrazol-1-yl)-2-(2-methylpiperazin-1-yl)benzoxazole]",68
19,"C[C@H]1CNCCN1c1nc2cc(Cl)cc(-c3ncc[nH]3)c2o1 [Example 50, (S)-5-Chloro-7-(1H-imidazol-2-yl)-2-(2-methylpiperazin-1-yl)benzoxazole]",62
20,"C[C@H]1CNCCN1c1nc2c(F)c(Cl)c(F)c(-c3ccccn3)c2o1 [Example 120, (S)-5-Chloro-4,6-difluoro-2-(2-methylpiperazin-1-yl)-7-(pyridin-2-yl)benzoxazole]",41

row,Structure (SMILES),PDE4 inhibitory activity (1 μM (%)) [%]
1,"C[C@H]1CNCCN1c1nc2cc(Cl)cc(-c3ncc(C(N)=O)s3)c2o1 [Example 65, (S)-5-Chloro-7-(5-carbamoylthiazol-2-yl)-2-(2-methylpiperazin-1-yl)benzoxazole]",83
2,"C[C@H]1CNCCN1c1nc2cc(Cl)cc(-c3ncsc3CO)c2o1 [Example 76, (S)-5-Chloro-7-(5-(hydroxymethyl)thiazol-4-yl)-2-(2-methylpiperazin-1-yl)benzoxazole]",73
3,"C[C@H]1CNCCN1c1nc2cc(Cl)cc(OCC3CC3)c2o1 [Example 53, (S)-5-Chloro-7-(cyclopropylmethoxy)-2-(2-methylpiperazin-1-yl)benzoxazole]",50
4,"Cc1c(Cl)cc(-n2cccn2)c2oc(N3CCNC[C@@H]3C)nc12 [Example 133, (S)-5-Chloro-4-methyl-2-(2-methylpiperazin-1-yl)-7-(1H-pyrazol-1-yl)benzoxazole]",92
5,"C[C@H]1CNCCN1c1nc2cc(Cl)cc(S(C)(=O)=O)c2o1 [Example 145, (S)-5-Chloro-2-(2-methylpiperazin-1-yl)-7-(methylsulfonyl)benzoxazole]",80
6,"C[C@H]1CNCCN1c1nc2c(OC(F)(F)F)c(Cl)cc(-c3ccccn3)c2o1 [Example 86, (S)-5-Chloro-2-(2-methylpiperazin-1-yl)-7-(pyridin-2-yl)-4-(trifluoromethoxy)benzoxazole]",91
7,"C[C@H]1CNCCN1c1nc2cc(C(F)(F)F)cc(-c3ccccn3)c2o1 [Example 125, (S)-2-(2-Methylpiperazin-1-yl)-7-(pyridin-2-yl)-5-(trifluoromethyl)benzoxazole]",91
8,"C[C@H]1CNCCN1c1nc2cc(Cl)c(I)c(-c3ccccn3)c2o1 [Example 147, (S)-5-Chloro-6-iodo-2-(2-methylpiperazin-1-yl)-7-(pyridin-2-yl)benz oxazole]",53
9,"CC(C)Oc1cc(Cl)cc2nc(N3CCNC[C@@H]3C)oc12 [Example 7, (S)-5-Chloro-7-isopropoxy-2-(2-methylpiperazin-1-yl)benzoxazole]",59
10,"C[C@H]1CNCCN1c1nc2c(OC(F)(F)F)c(F)cc(-n3cccn3)c2o1 [Example 136, (S)-5-Fluoro-2-(2-methylpiperazin-1-yl)-7-(1H-pyrazol-1-yl)-4-(trifluoromethoxy)benzoxazole]",90
11,"C[C@H]1CNCCN1c1nc2cc(Cl)cc(-c3ccco3)c2o1 [Example 23, (S)-5-Chloro-7-(furan-2-yl)-2-(2-methylpiperazin-1-yl)benzoxazole]",95
12,"C[C@H]1CNCCN1c1nc2cc(C(F)(F)F)cc(-c3nccs3)c2o1 [Example 126, (S)-2-(2-Methylpiperazin-1-yl)-7-(thiazol-2-yl)-5-(trifluoromethyl)benzoxazole]",95
13,"Cc1cc(N2CCCC2)cc2nc(N3CCNC[C@@H]3C)oc12 [Example 172, (S)-7-Methyl-5-(pyrrolidin-1-yl)-2-(2-methylpiperazin-1-yl)benzoxazole]",<10
14,"C[C@H]1CNCCN1c1nc2cc(Cl)cc(N(C)C)c2o1 [Example 26, (S)-5-Chloro-7-dimethylamino-2-(2-methylpiperazin-1-yl)benzoxazole]",61
15,"CCOc1cc(Cl)cc2nc(N3CCNC[C@@H]3C)oc12 [Example 29, (S)-5-Chloro-7-ethoxy-2-(2-methylpiperazin-1-yl)benzoxazole]",63
16,"C[C@H]1CNCCN1c1nc2cc(C#N)cc(-c3ncco3)c2o1 [Example 113, (S)-5-Cyano-2-(2-methylpiperazin-1-yl)-7-(oxazol-2-yl)benzoxazole]",71
17,"C[C@H]1CNCCN1c1nc2cc(Cl)cc(-c3ncon3)c2o1 [Example 105, (S)-5-Chloro-2-(2-methylpiperazin-1-yl)-7-(1,2,4-oxadiazol-3-yl)benzoxazole]",61
18,"C[C@H]1CNCCN1c1nc2c(C(F)(F)F)c(Cl)cc(-n3cccn3)c2o1 [Example 83, (S)-5-Chloro-2-(2-methylpiperazin-1-yl)-7-(1H-pyrazol-1-yl)-4-(trifluoromethyl)benzoxazole]",92
19,"C[C@H]1CNCCN1c1nc2cc(Cl)c(OC(F)(F)F)c(-c3nccs3)c2o1 [Example 160, (S)-5-Chloro-2-(2-methylpiperazin-1-yl)-7-(thiazol-2-yl)-6-(trifluoromethoxy)benzoxazole]",86
